The values below come from US9453062B2, “Glucose dependent insulinotropic polypeptide analogs, pharmaceutical compositions and use thereof” (Beijing Hanmi Pharmaceutical Co., Ltd., priority 2011, dated 2016).

pEC50: −log10 of the molar value. Read-outs that look alike come from different tables or passages of the source. Where a SMILES comes first, the peptide text is derived from it. Bridges are numbered along the chain shown (N, C = ends). [ ]: non-standard residue; d: D form. The star is where a group is joined. Biotin = O=C1N[C@H]2[C@H](CS[C@H]2CCCCC(=O)*)N1; Aib = CC(C)(N)C(=O)O

One assay concerns the target T1, hGIPR (Homo sapiens, UniProt P48546).
T1 construct: expressed in transfected cells; host or cells: CHO
T1 sequence (P48546 22-466): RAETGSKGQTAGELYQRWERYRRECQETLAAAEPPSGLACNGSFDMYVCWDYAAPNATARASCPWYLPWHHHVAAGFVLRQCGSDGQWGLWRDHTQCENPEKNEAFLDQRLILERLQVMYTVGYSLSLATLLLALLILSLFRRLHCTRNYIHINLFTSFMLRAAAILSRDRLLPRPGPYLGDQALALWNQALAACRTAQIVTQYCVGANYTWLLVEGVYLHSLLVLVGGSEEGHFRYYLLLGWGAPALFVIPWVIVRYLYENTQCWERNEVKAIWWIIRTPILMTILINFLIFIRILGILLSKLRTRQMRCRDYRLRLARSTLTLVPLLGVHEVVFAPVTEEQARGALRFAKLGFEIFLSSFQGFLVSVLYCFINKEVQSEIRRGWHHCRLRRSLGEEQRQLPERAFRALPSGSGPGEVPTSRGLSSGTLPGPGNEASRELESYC
Briefly: hGIPR-mediated cAMP induction assay in CHO cell line. The format is cell-based. To be noted: for GIP Receptor Relative Potency / GIPR Relative Potency: against native GIP.

Another assay concerns the target T2, hGLP-1R (Homo sapiens, UniProt P43220).
T2 construct: expressed in transfected cells; host or cells: CHO
Kind of assay: hGLP-1R-mediated cAMP induction assay in CHO cell line.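 On all read-outs here: CHO cells expressing human GLP-1R, treated 30 min at 37 °C, intracellular cAMP measured by competitive fluorescent immunoassay and converted via a cAMP standard curve.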 The format is cell-based. The conditions noted are these: for GLP-1 Receptor Relative Potency / GLP-1R Relative Potency: against native GLP-1.

[1] abbreviates: Table 1, CHO/hGIPR cells, read-out: GIPR EC50.
The mark [2] stands for this setting: Table 1, CHO/hGLP-1R cells, read-out: GLP-1R EC50.

T2 sequence (P43220 24-463): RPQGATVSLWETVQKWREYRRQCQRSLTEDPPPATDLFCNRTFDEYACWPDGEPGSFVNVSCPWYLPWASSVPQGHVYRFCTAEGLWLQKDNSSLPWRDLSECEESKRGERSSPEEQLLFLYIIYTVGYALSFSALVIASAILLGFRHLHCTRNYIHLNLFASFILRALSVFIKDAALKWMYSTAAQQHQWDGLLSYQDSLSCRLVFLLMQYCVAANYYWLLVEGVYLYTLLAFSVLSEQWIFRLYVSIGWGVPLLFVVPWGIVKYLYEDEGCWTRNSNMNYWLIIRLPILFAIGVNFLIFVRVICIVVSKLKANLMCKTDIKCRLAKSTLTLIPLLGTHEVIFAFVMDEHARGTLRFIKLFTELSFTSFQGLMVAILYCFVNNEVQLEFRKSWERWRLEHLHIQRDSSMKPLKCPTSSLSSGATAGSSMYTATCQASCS

Regarding `CC[C@H](C)[C@H](NC(=O)[C@H](CO)NC(=O)[C@H](Cc1ccc(O)cc1)NC(=O)[C@H](CC(=O)O)NC(=O)[C@H](CO)NC(=O)[C@@H](NC(=O)[C@H](Cc1ccccc1)NC(=O)[C@@H](NC(=O)CNC(=O)[C@H](CCC(=O)O)NC(=O)C(C)(C)NC(=O)[C@@H](N)Cc1ccc(O)cc1)[C@@H](C)O)[C@@H](C)O)C(=O)N[C@@H](Cc1ccc(O)cc1)C(=O)N[C@@H](CCSC)C(=O)N[C@@H](CCC(=O)O)C(=O)N[C@@H](CCCCN)C(=O)N[C@@H](CCC(=O)O)C(=O)N[C@@H](C)C(=O)N[C@H](C(=O)N[C@@H](CCCNC(=N)N)C(=O)N[C@@H](CCC(=O)O)C(=O)N[C@@H](Cc1ccccc1)C(=O)N[C@H](C(=O)N[C@@H](CCC(=O)O)C(=O)N[C@@H](Cc1c[nH]c2ccccc12)C(=O)N[C@@H](CC(C)C)C(=O)N[C@H](C(=O)N[C@@H](CCCCN)C(=O)NCC(N)=O)C(C)C)[C@@H](C)CC)C(C)C` [Compound 054-1] (H-Y[Aib]EGTFTSDYSIYMEKEAVREFIEWLVKG-NH2), the pEC50 on hGIPR (Table 3, CHO hGIPR cells) was 9.57; at hGLP-1R (Table 3, CHO hGLP1R cells), 8.52. In addition, at hGIPR (Table 3), the “GIP Receptor Relative Potency” value was determined as 77.7.
As to `CC[C@H](C)[C@H](NC(=O)[C@H](Cc1ccccc1)NC(=O)[C@H](CCC(=O)O)NC(=O)[C@H](CCCNC(=N)N)NC(=O)[C@@H](NC(=O)[C@H](C)NC(=O)[C@H](CCC(=O)O)NC(=O)[C@H](CCCCN)NC(=O)[C@H](CCC(=O)O)NC(=O)[C@H](CCSC)NC(=O)[C@H](Cc1ccc(O)cc1)NC(=O)[C@@H](NC(=O)[C@H](CO)NC(=O)[C@H](Cc1ccc(O)cc1)NC(=O)[C@H](CC(=O)O)NC(=O)[C@H](CO)NC(=O)[C@@H](NC(=O)[C@H](Cc1ccccc1)NC(=O)[C@@H](NC(=O)CNC(=O)[C@H](CCC(=O)O)NC(=O)C(C)(C)NC(=O)[C@@H](N)Cc1ccc(O)cc1)[C@@H](C)O)[C@@H](C)O)[C@@H](C)CC)C(C)C)C(=O)N[C@@H](C)C(=O)N[C@@H](Cc1c[nH]c2ccccc12)C(=O)N[C@@H](CC(C)C)C(=O)N[C@H](C(=O)N[C@@H](CCCCN)C(=O)NCC(=O)NCC(=O)N1CCC[C@H]1C(=O)N[C@@H](CO)C(=O)N[C@@H](CO)C(=O)NCC(=O)N[C@@H](C)C(=O)N1CCC[C@H]1C(=O)N1CCC[C@H]1C(=O)N1CCC[C@H]1C(=O)N[C@@H](CO)C(=O)N[C@@H](CCCCNC(=O)CCCCCCCCCCCCCCC(=O)O)C(N)=O)C(C)C` [Compound 106], the pEC50 at hGIPR (Table 3, CHO hGIPR cells) is 10.01; at hGLP-1R (Table 3, CHO hGLP1R cells) it was 9.04. The “GIP Receptor Relative Potency” value on hGIPR (Table 3) amounted to 67.0. Further, at hGLP-1R (Table 3), the “GLP-1 Receptor Relative Potency” value was 157.8.
With `CC[C@H](C)[C@H](NC(=O)[C@H](Cc1ccccc1)NC(=O)[C@H](CCC(=O)O)NC(=O)[C@H](CCCNC(=N)N)NC(=O)[C@@H](NC(=O)[C@H](C)NC(=O)[C@H](CCC(=O)O)NC(=O)[C@@H]1CCCCNC(=O)CC[C@H](NC(=O)[C@H](CO)NC(=O)[C@H](Cc2ccc(O)cc2)NC(=O)[C@H](CC(=O)O)NC(=O)[C@H](CO)NC(=O)[C@@H](NC(=O)[C@H](Cc2ccccc2)NC(=O)[C@@H](NC(=O)CNC(=O)[C@H](CCC(=O)O)NC(=O)C(C)(C)NC(=O)[C@@H](N)Cc2ccc(O)cc2)[C@@H](C)O)[C@@H](C)O)C(=O)N[C@@H](Cc2ccc(O)cc2)C(=O)N[C@@H](CCSC)C(=O)N[C@@H](CCC(=O)O)C(=O)N1)C(C)C)C(=O)N[C@@H](C)C(=O)N[C@@H](Cc1c[nH]c2ccccc12)C(=O)N[C@@H](CC(C)C)C(=O)N[C@H](C(=O)N[C@@H](CCCCN)C(=O)NCC(=O)NCC(=O)N1CCC[C@H]1C(=O)N[C@@H](CO)C(=O)N[C@@H](CO)C(=O)NCC(=O)N[C@@H](C)C(=O)N1CCC[C@H]1C(=O)N1CCC[C@H]1C(=O)N1CCC[C@H]1C(=O)N[C@@H](CO)C(N)=O)C(C)C` [Compound 081] (H-Y[Aib]EGTFTSDYSEYMEKEAVREFIAWLVKGGPSSGAPPPS-NH2; lactam 12-16), the pEC50 at hGIPR (Table 3, CHO hGIPR cells) was 10.36; on hGLP-1R (Table 3, CHO hGLP1R cells), 9.11. Also, the “GIP Receptor Relative Potency” value on hGIPR (Table 3) stood at 250. Besides, the “GLP-1 Receptor Relative Potency” value on hGLP-1R (Table 3) turned out to be 124.3.
In the case of `CC[C@H](C)[C@H](NC(=O)[C@H](CO)NC(=O)[C@H](Cc1ccc(O)cc1)NC(=O)[C@H](CC(=O)O)NC(=O)[C@H](CO)NC(=O)[C@@H](NC(=O)[C@H](Cc1ccccc1)NC(=O)[C@@H](NC(=O)CNC(=O)[C@H](CCC(=O)O)NC(=O)C(C)(C)NC(=O)[C@@H](N)Cc1ccc(O)cc1)[C@@H](C)O)[C@@H](C)O)C(=O)N[C@@H](Cc1ccc(O)cc1)C(=O)N[C@@H](CCSC)C(=O)N[C@@H](CCC(=O)O)C(=O)N[C@@H](CCCCN)C(=O)N[C@@H](CCC(=O)O)C(=O)N[C@@H](C)C(=O)N[C@H](C(=O)N[C@@H](CCCNC(=N)N)C(=O)N[C@@H](CC(C)C)C(=O)N[C@@H](Cc1ccccc1)C(=O)N[C@H](C(=O)N[C@@H](CCC(=O)O)C(=O)N[C@@H](Cc1c[nH]c2ccccc12)C(=O)N[C@@H](CC(C)C)C(=O)N[C@@H](CCCCN)C(=O)N[C@@H](CC(N)=O)C(=O)NCC(N)=O)[C@@H](C)CC)C(C)C` [Compounds 024] (H-Y[Aib]EGTFTSDYSIYMEKEAVRLFIEWLKNG-NH2; N-terminus assumed), the negative-log EC50 (pEC50) on hGIPR (setting [1]) is 10.00; at hGLP-1R (setting [2]), 9.51. The “GIPR Relative Potency” value at hGIPR (Table 1) was 500%. Moreover, the “GIP Receptor Relative Potency” value at hGIPR (Table 3) came to 500. The “GLP-1R Relative Potency” value on hGLP-1R (Table 1) amounted to 354%. For the same compound, the “GLP-1 Receptor Relative Potency” value at hGLP-1R (Table 3) is 354.
With `CC[C@H](C)[C@H](NC(=O)[C@H](Cc1ccccc1)NC(=O)[C@H](CCC(=O)O)NC(=O)[C@@H]1CCC(=O)NCCCC[C@H](NC(=O)[C@H](CCC(=O)O)NC(=O)[C@H](CCSC)NC(=O)[C@H](Cc2ccc(O)cc2)NC(=O)[C@@H](NC(=O)[C@H](CO)NC(=O)[C@H](Cc2ccc(O)cc2)NC(=O)[C@H](CC(=O)O)NC(=O)[C@H](CO)NC(=O)[C@@H](NC(=O)[C@H](Cc2ccccc2)NC(=O)[C@@H](NC(=O)CNC(=O)[C@H](CCC(=O)O)NC(=O)C(C)(C)NC(=O)[C@@H](N)Cc2ccc(O)cc2)[C@@H](C)O)[C@@H](C)O)[C@@H](C)CC)C(=O)N[C@@H](CCC(=O)O)C(=O)N[C@@H](C)C(=O)N[C@@H](C(C)C)C(=O)N1)C(=O)N[C@@H](C)C(=O)N[C@@H](Cc1c[nH]c2ccccc12)C(=O)N[C@@H](CC(C)C)C(=O)N[C@H](C(=O)N[C@@H](CCCCN)C(=O)NCC(N)=O)C(C)C` [Compound 053-2] (H-Y[Aib]EGTFTSDYSIYMEKEAVEEFIAWLVKG-NH2; lactam 16-20; N-terminus assumed), on hGIPR (Table 3), the “GIP Receptor Relative Potency” value was found to be 35.4. On hGLP-1R (Table 3, CHO hGLP1R cells), this compound gave a pEC50 of 8.53. On hGLP-1R (Table 3), the “GLP-1 Receptor Relative Potency” value was 37.
In the case of `CC[C@H](C)[C@H](NC(=O)[C@H](Cc1ccccc1)NC(=O)[C@H](CCC(=O)O)NC(=O)[C@H](CCCCN)NC(=O)[C@H](C)NC(=O)[C@H](C)NC(=O)[C@H](CCC(N)=O)NC(=O)[C@H](CCCCN)NC(=O)[C@H](CCC(=O)O)NC(=O)[C@H](CCSC)NC(=O)[C@H](Cc1ccc(O)cc1)NC(=O)[C@@H](NC(=O)[C@H](CO)NC(=O)[C@H](Cc1ccc(O)cc1)NC(=O)[C@H](CC(=O)O)NC(=O)[C@H](CO)NC(=O)[C@@H](NC(=O)[C@H](Cc1ccccc1)NC(=O)[C@@H](NC(=O)CNC(=O)[C@H](CCC(=O)O)NC(=O)C(C)(C)NC(=O)[C@@H](N)Cc1ccc(O)cc1)[C@@H](C)O)[C@@H](C)O)[C@@H](C)CC)C(=O)N[C@@H](C)C(=O)N[C@@H](Cc1c[nH]c2ccccc12)C(=O)N[C@@H](CC(C)C)C(=O)N[C@H](C(=O)N[C@@H](CCCCN)C(=O)NCC(N)=O)C(C)C` [Compounds 025] (H-Y[Aib]EGTFTSDYSIYMEKQAAKEFIAWLVKG-NH2; N-terminus assumed), the pEC50 at hGIPR (setting [1]) is 8.82; on hGLP-1R (setting [2]), 9.08. In addition, the “GIPR Relative Potency” value at hGIPR (Table 1) was determined as 33.3%. Moreover, the “GIP Receptor Relative Potency” value on hGIPR (Table 3) is 33.3. Further, the “GLP-1R Relative Potency” value at hGLP-1R (Table 1) was determined as 131%. Besides, the “GLP-1 Receptor Relative Potency” value on hGLP-1R (Table 3) was 131.
Regarding `CC[C@H](C)[C@H](NC(=O)[C@H](Cc1ccccc1)NC(=O)[C@H](CCC(=O)O)NC(=O)[C@H](CCCNC(=N)N)NC(=O)[C@@H](NC(=O)[C@H](C)NC(=O)[C@H](CCC(=O)O)NC(=O)[C@H](CCCCN)NC(=O)[C@H](CCC(=O)O)NC(=O)[C@H](CCSC)NC(=O)[C@H](Cc1ccc(O)cc1)NC(=O)[C@@H](NC(=O)[C@H](CO)NC(=O)[C@H](Cc1ccc(O)cc1)NC(=O)[C@H](CC(=O)O)NC(=O)[C@H](CO)NC(=O)[C@@H](NC(=O)[C@H](Cc1ccccc1)NC(=O)[C@@H](NC(=O)CNC(=O)[C@H](CCC(=O)O)NC(=O)C(C)(C)NC(=O)[C@@H](N)Cc1ccc(O)cc1)[C@@H](C)O)[C@@H](C)O)[C@@H](C)CC)C(C)C)C(=O)N[C@@H](C)C(=O)N[C@@H](Cc1c[nH]c2ccccc12)C(=O)N[C@@H](CC(C)C)C(=O)N[C@H](C(=O)N[C@@H](CCCCN)C(=O)NCC(=O)N[C@@H](CCCNC(=N)N)C(=O)N[C@@H](CCCNC(=N)N)C(=O)N[C@@H](CCCNC(=N)N)C(=O)N[C@@H](CCCNC(=N)N)C(=O)N[C@@H](CCCNC(=N)N)C(=O)N[C@@H](CCCNC(=N)N)C(N)=O)C(C)C` [Compound 075] (H-Y[Aib]EGTFTSDYSIYMEKEAVREFIAWLVKGRRRRRR-NH2; N-terminus assumed), the “GIP Receptor Relative Potency” value on hGIPR (Table 3) stood at 8.3. Also, the “GLP-1 Receptor Relative Potency” value at hGLP-1R (Table 3) is recorded as 77.7.
Take “H-Y[Aib]EGTFTSDYSIYMEKEAVREFIAWLVKGGPSSGAPPPSKKKKKK(Biotin)-NH2 [Compound 080]”: the pEC50 is 10.00 on hGIPR (Table 3, CHO hGIPR cells) and 8.95 on hGLP-1R (Table 3, CHO hGLP1R cells). For the same compound, the “GIP Receptor Relative Potency” value on hGIPR (Table 3) came to 67. For the same compound, the “GLP-1 Receptor Relative Potency” value at hGLP-1R (Table 3) turned out to be 98.5.

Usually pEC50 stands for the negative decadic logarithm of the EC50, by convention in mol/L.
